Measured values reported in PubChem BioAssay AID2060507 (Molecular Pharmacology Branch, DTP, NCI, 2025).

System: 519858-162-T-J1-PDC complex spheroid viability
Assay: Anticancer human tumor 519858-162-T-J1-PDC patient-derived colon adenocarcinoma cell line growth inhibition [GQUAD]
Settings: for IC50: curve of first compound; for viability, T/C: stronger effect = lower value
Method in brief: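 Multi-cell-type spheroids of tumor cells with HUVEC and mesenchymal stem cells, treated with drug combinations. Concentrations descend in half-log steps from near clinical Cmax, or from 10 microM where Cmax is unknown; viability read-out.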

[1] = second compound 0.0316 µM, first compound 0.0316 µM
[2] = second compound 0.0316 µM, first compound 0.1 µM
[3] = second compound 0.0316 µM, first compound 0.316 µM
[4] = second compound 0.0316 µM, first compound 1 µM
[5] = second compound 0.0316 µM, first compound 3.16 µM
[6] = second compound 0.0316 µM, first compound 10 µM
[7] = second compound 0.1 µM, first compound 0.0316 µM
[8] = second compound 0.1 µM, first compound 0.1 µM
[9] = second compound 0.1 µM, first compound 0.316 µM
[10] = second compound 0.1 µM, first compound 1 µM
[11] = second compound 0.1 µM, first compound 3.16 µM
[12] = second compound 0.1 µM, first compound 10 µM
[13] = second compound 0.316 µM, first compound 0.0316 µM
[14] = second compound 0.316 µM, first compound 0.1 µM
[15] = second compound 0.316 µM, first compound 0.316 µM
[16] = second compound 0.316 µM, first compound 1 µM
[17] = second compound 0.316 µM, first compound 3.16 µM
[18] = second compound 0.316 µM, first compound 10 µM
[19] = second compound 1 µM, first compound 0.0316 µM
[20] = second compound 1 µM, first compound 0.1 µM
[21] = second compound 1 µM, first compound 0.316 µM
[22] = second compound 1 µM, first compound 1 µM
[23] = second compound 1 µM, first compound 3.16 µM
[24] = second compound 1 µM, first compound 10 µM
[25] = second compound 3.16 µM, first compound 0.0316 µM
[26] = second compound 3.16 µM, first compound 0.1 µM
[27] = second compound 3.16 µM, first compound 0.316 µM
[28] = second compound 3.16 µM, first compound 1 µM
[29] = second compound 3.16 µM, first compound 3.16 µM
[30] = second compound 3.16 µM, first compound 10 µM
[31] = second compound 10 µM, first compound 0.0316 µM
[32] = second compound 10 µM, first compound 0.1 µM
[33] = second compound 10 µM, first compound 0.316 µM
[34] = second compound 10 µM, first compound 1 µM
[35] = second compound 10 µM, first compound 3.16 µM
[36] = second compound 10 µM, first compound 10 µM
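Further: spheroids exposed to compounds for 7 days.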
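Wherever viability, T/C is given: 100% = DMSO vehicle control viability.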

`CC(C)(O)C1CCC(Nc2ccc3ncc(-c4cccc(C(F)(F)F)c4)n3n2)CC1` (centres undefined) + Cc1cnc(CNC(=O)c2c(=O)c3ccc(N4CCCN(C)CC4)nc3n3c2sc2ccccc23)cn1 gave an IC50 (second compound 0.0316 µM) of 2.15 µM, an IC50 (second compound 0.1 µM) of 1.98 µM and an IC50 (second compound 0.316 µM) of 1.45 µM. It also gave an IC50 (second compound 1 µM) of 0.262 µM, an IC50 (second compound 3.16 µM) of under 0.0316 µM and an IC50 (second compound 10 µM) of 0.0316 µM. The viability, T/C [1] was 101%, the viability, T/C [2] was 111% and the viability, T/C [3] was 93.2%. The viability, T/C [4] was 103%, the viability, T/C [5] was 11% and the viability, T/C [6] was 36.5%. For the same compound, the viability, T/C [7] was 87.6%, the viability, T/C [8] was 95.5% and the viability, T/C [9] was 107%. It also gave a viability, T/C [10] of 105%, a viability, T/C [11] of 8.82% and a viability, T/C [12] of 24.6%. It also gave a viability, T/C [13] of 107%, a viability, T/C [14] of 72.4% and a viability, T/C [15] of 63.5%. It also gave a viability, T/C [16] of 80.9%, a viability, T/C [17] of 20.8% and a viability, T/C [18] of 31.2%. For the same compound, the viability, T/C [19] was 71.1%, the viability, T/C [20] was 68.8% and the viability, T/C [21] was 42.1%. It also gave a viability, T/C [22] of 48.5%, a viability, T/C [23] of 42.4% and a viability, T/C [24] of 52.3%. For the same compound, the viability, T/C [25] was 37.5%, the viability, T/C [26] was 43.1% and the viability, T/C [27] was 50.8%. The viability, T/C [28] was 47.1%, the viability, T/C [29] was 31.4% and the viability, T/C [30] was 20.8%. For the same compound, the viability, T/C [31] was 36.4%, the viability, T/C [32] was 45.3% and the viability, T/C [33] was 52.3%. For the same compound, the viability, T/C [34] was 64.7%, the viability, T/C [35] was 9.24% and the viability, T/C [36] was 0.75%.

`COc1ccc([C@@H](O)c2cc(-c3ncnc4cc(N5CCOCC5)ccc34)c(F)cc2Cl)nn1` + Cc1cnc(CNC(=O)c2c(=O)c3ccc(N4CCCN(C)CC4)nc3n3c2sc2ccccc23)cn1 gave an IC50 (second compound 0.0316 µM) of 10 µM, an IC50 (second compound 0.1 µM) of 3.66 µM and an IC50 (second compound 0.316 µM) of 4.18 µM. It also gave an IC50 (second compound 1 µM) of 9.07 µM, an IC50 (second compound 3.16 µM) of 0.243 µM and an IC50 (second compound 10 µM) of under 0.0316 µM. It also gave a viability, T/C [1] of 72.4%, a viability, T/C [2] of 102% and a viability, T/C [3] of 81.6%. It also gave a viability, T/C [4] of 99.3%, a viability, T/C [5] of 48.9% and a viability, T/C [6] of 53%. It also gave a viability, T/C [7] of 75.6%, a viability, T/C [8] of 70.5% and a viability, T/C [9] of 62.8%. The viability, T/C [10] was 50.8%, the viability, T/C [11] was 55.1% and the viability, T/C [12] was 44.8%. The viability, T/C [13] was 109%, the viability, T/C [14] was 72.9% and the viability, T/C [15] was 80%. For the same compound, the viability, T/C [16] was 56.1%, the viability, T/C [17] was 41.7% and the viability, T/C [18] was 52%. For the same compound, the viability, T/C [19] was 56.7%, the viability, T/C [20] was 49.9% and the viability, T/C [21] was 48.1%. The viability, T/C [22] was 47.9%, the viability, T/C [23] was 67.3% and the viability, T/C [24] was 41%. It also gave a viability, T/C [25] of 58.4%, a viability, T/C [26] of 62.2% and a viability, T/C [27] of 46.9%. The viability, T/C [28] was 30%, the viability, T/C [29] was 34.8% and the viability, T/C [30] was 45.9%. It also gave a viability, T/C [31] of 36.6%, a viability, T/C [32] of 33.5% and a viability, T/C [33] of 49.3%. The viability, T/C [34] was 35.2%, the viability, T/C [35] was 47.7% and the viability, T/C [36] was 37.7%.
